Test [1] concerns the target T1, Type-1 angiotensin II receptor (Homo sapiens, UniProt P30556).
T1 sequence (P30556 whole entry): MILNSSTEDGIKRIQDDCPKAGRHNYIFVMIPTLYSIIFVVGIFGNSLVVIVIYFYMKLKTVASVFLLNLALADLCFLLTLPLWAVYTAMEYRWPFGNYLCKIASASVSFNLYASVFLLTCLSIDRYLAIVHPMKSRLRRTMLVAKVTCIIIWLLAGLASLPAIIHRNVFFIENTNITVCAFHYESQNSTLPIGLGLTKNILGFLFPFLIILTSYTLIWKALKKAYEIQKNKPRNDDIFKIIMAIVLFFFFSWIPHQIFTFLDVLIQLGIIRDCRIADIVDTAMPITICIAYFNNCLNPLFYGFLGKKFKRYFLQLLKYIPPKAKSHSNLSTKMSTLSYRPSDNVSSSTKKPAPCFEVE
Kind of test: Displacement of 125I-labelled Sar1-Ile8-angiotensin-2 from human AT1 receptor. For orientation: Loss of bound radioactivity is the signal in a displacement assay; it reports binding, not function.

For test [2], the target named is T2, Endothelin-1 receptor (Homo sapiens, UniProt P25101).
T2 sequence (P25101 whole entry): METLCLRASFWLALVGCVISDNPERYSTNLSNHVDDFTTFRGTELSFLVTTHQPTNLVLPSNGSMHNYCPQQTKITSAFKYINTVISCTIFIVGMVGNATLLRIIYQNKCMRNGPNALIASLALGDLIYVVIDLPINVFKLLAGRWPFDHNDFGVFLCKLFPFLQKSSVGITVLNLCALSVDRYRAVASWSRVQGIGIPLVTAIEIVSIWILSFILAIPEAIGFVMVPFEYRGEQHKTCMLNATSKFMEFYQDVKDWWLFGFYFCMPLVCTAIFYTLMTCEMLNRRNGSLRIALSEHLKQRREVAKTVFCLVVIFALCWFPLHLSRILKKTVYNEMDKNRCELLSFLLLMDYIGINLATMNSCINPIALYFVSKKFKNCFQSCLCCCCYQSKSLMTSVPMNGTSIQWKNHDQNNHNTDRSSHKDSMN
Kind of test: Displacement of 125I-labelled endothelin-1 from human ETA receptor expressed in CHOK1 cell membranes. The arrangement: species or system CHO-K1.

The subject of test [3] is Rattus norvegicus. Kind of test: Antihypertensive activity in spontaneous hypertensive rat assessed as heart rate at 20 mg/kg, po after 1 to 24 hrs. The format is functional, organism-based.
In test [4] the test system is Rattus norvegicus. Kind of test: Antihypertensive activity in spontaneous hypertensive rat assessed as mean blood pressure at 20 mg/kg, po after 4 hrs. In kind it is functional.
For test [5], the system named is Rattus norvegicus. Kind of test: Antihypertensive activity in spontaneous hypertensive rat assessed as mean blood pressure at 20 mg/kg, po after 24 hrs. The format is functional, organism-based.
Test [6] deals with Rattus norvegicus. Kind of test: Antihypertensive activity in spontaneous hypertensive rat assessed as time duration of lowering mean blood pressure >20 mmHg at 20 mg/kg, po. In kind it is functional.
Test [7] deals with Rattus norvegicus. The test can be described thus: Antihypertensive activity in spontaneous hypertensive rat assessed as mean blood pressure at 20 mg/kg, po after 6 hrs. In kind it is functional.

Active and inactive are the calls of the source. The calls are words filed in the database; no cut-off is given here.

By IC50 is commonly meant the concentration needed to halve the response being measured. Read a high IC50 as weaker potency.

`CCCc1nc2c(C)cc(C(=O)NCc3cccc(OC)c3)cc2n1Cc1ccc(-c2ccccc2C(=O)Nc2nnn[nH]2)cc1`: the IC50 in test [1] was 53.9 nM; in test [2], 625 nM.
In the case of `CCCc1nc2c(C)cc(C(=O)NCCN3CCN(C)CC3)cc2n1Cc1ccc(-c2ccccc2C(=O)Nc2nnn[nH]2)cc1`, the IC50 in test [1] came out at 53.5 nM; in test [2], 9100 nM.
As for `CCCc1nc2c(C)cc(C(=O)NC(C)C)cc2n1Cc1ccc(-c2ccccc2C(=O)Nc2nnn[nH]2)cc1`, the results for the IC50 in test [1] and in test [2] were 161 nM and over 20000 nM, respectively.
The matching figures for `CCCc1nc2c(C)cc(C(=O)NCCc3ccccc3OC)cc2n1Cc1ccc(-c2ccccc2C(=O)Nc2nnn[nH]2)cc1`: 26.1 nM and 7000 nM.
The matching figures for `CCCc1nc2c(C)cc(C(=O)NCCc3ccc(F)cc3)cc2n1Cc1ccc(-c2ccccc2C(=O)Nc2nnn[nH]2)cc1`: 140 nM and over 20000 nM.
As to `CCCc1nc2c(C)cc(C(=O)NCCN3CCCC3)cc2n1Cc1ccc(-c2ccccc2C(=O)Nc2nnn[nH]2)cc1`, the IC50 in test [1] worked out at 69.4 nM; in test [2], 7100 nM.
Consider `CCCc1nc2c(C)cc(C(=O)NCc3ccc(OC)cc3)cc2n1Cc1ccc(-c2ccccc2C(=O)Nc2nnn[nH]2)cc1`, for which the IC50 in test [1] is 550 nM; in test [2], over 20000 nM.
Turning to `CCCc1nc2c(C)cc(C(=O)NCCc3cc(OC)ccc3OC)cc2n1Cc1ccc(-c2ccccc2C(=O)Nc2nnn[nH]2)cc1`, the IC50 in test [1] was 30.7 nM; in test [2], over 20000 nM.
As to `CCCc1nc2c(C)cc(C(=O)NCCc3ccc(OC)cc3)cc2n1Cc1ccc(-c2ccccc2C(=O)Nc2nnn[nH]2)cc1`, the IC50 is 87.8 nM in test [1] and 13000 nM in test [2].
The corresponding values for `CCCc1nc2c(C)cc(C(=O)Nc3ccccc3)cc2n1Cc1ccc(-c2ccccc2C(=O)Nc2nnn[nH]2)cc1` are 73.7 nM and 14000 nM.
With `CCCc1nc2c(C)cc(C(=O)Nc3ccccc3OC)cc2n1Cc1ccc(-c2ccccc2C(=O)Nc2nnn[nH]2)cc1`, the IC50 in test [1] worked out at 347 nM; in test [2] it was 886 nM.
The corresponding values for `CCCc1nc2c(C)cc(C(=O)NCCN3CCOCC3)cc2n1Cc1ccc(-c2ccccc2C(=O)Nc2nnn[nH]2)cc1` are 44 nM and 165 nM.
For `CCCNC(=O)c1cc(C)c2nc(CCC)n(Cc3ccc(-c4ccccc4C(=O)Nc4nnn[nH]4)cc3)c2c1`, the results for the IC50 in test [1] and in test [2] were 363 nM and over 20000 nM, respectively.
Regarding `CCCc1nc2c(C)cc(C(=O)NC(C)(C)C)cc2n1Cc1ccc(-c2ccccc2C(=O)Nc2nnn[nH]2)cc1`, the IC50 is 390 nM in test [1] and over 20000 nM in test [2].
For `CCCc1nc2c(C)cc(C(=O)NCc3ccccc3OC)cc2n1Cc1ccc(-c2ccccc2C(=O)Nc2nnn[nH]2)cc1`, the IC50 in test [1] was 73.3 nM; in test [2], 7200 nM.
The corresponding values for `CCCc1nc2c(C)cc(C(=O)NCCc3ccccc3F)cc2n1Cc1ccc(-c2ccccc2C(=O)Nc2nnn[nH]2)cc1` are 90 nM and 11000 nM.
For `CCCCC1=NC2(CCCC2)C(=O)N1Cc1ccc(-c2ccccc2-c2nnn[nH]2)cc1` [IRBESARTAN], the result in test [3] and in test [5] was Active. In test [4], the Activity worked out at 20 mmHg. Further, the Time in test [6] worked out at 1 h.
`CCCc1nc2c(C)cc(C(=O)NCCN3CCCCC3)cc2n1Cc1ccc(-c2ccccc2C(=O)Nc2nnn[nH]2)cc1`: the IC50 was 67.5 nM in test [1] and over 20000 nM in test [2].
On to `CCCc1nc2c(C)cc(C(=O)NCCc3cccc(OC)c3)cc2n1Cc1ccc(-c2ccccc2C(=O)Nc2nnn[nH]2)cc1`, for which the IC50 in test [1] is 36.9 nM; in test [2], over 20000 nM.
`CCCc1nc2c(C)cc(C(=O)NCc3ccccc3)cc2n1Cc1ccc(-c2ccccc2C(=O)Nc2nnn[nH]2)cc1`: the IC50 was 82 nM in test [1] and 10 nM in test [2].
With `CCCc1nc2c(C)cc(C(=O)NCCc3ccc(OC)c(OC)c3)cc2n1Cc1ccc(-c2ccccc2C(=O)Nc2nnn[nH]2)cc1`, the IC50 in test [1] is 93 nM; in test [2], over 20000 nM.
Consider `CCCc1nc2c(C)cc(C(=O)NCCc3ccccc3)cc2n1Cc1ccc(-c2ccccc2C(=O)Nc2nnn[nH]2)cc1`, for which the IC50 in test [1] is 3.9 nM; in test [2], 126 nM. Further, the Activity in test [7] worked out at 24 mmHg. The result in test [3] and in test [5] was Active. Also, the Time in test [6] came to 4 h.
Take `CCCc1nc2c(C)cc(C(=O)NCc3ccc(OC)c(OC)c3)cc2n1Cc1ccc(-c2ccccc2C(=O)Nc2nnn[nH]2)cc1`: the IC50 in test [1] was determined as 32.9 nM; in test [2] it was 10000 nM.
For the compound `CCCCNC(=O)c1cc(C)c2nc(CCC)n(Cc3ccc(-c4ccccc4C(=O)Nc4nnn[nH]4)cc3)c2c1`, the IC50 in test [1] was 439 nM; in test [2] it was over 20000 nM.

The record behind these values is ChEMBL document CHEMBL3751753, “Synthesis and biological evaluation of 4-[(benzimidazol-1-yl) methyl]biphenyl-2-amides as dual angiotensin II and endothelin A receptor antagonists” (Medchemcomm, 2015).
